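Compound exposure: 48 hours, 5 concentrations, 96-well plates. At the GI50, growth is halved. Definition used: TGI = concentration required for complete inhibition of growth.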
How the values were obtained:
Test in all cases: NCI anticancer screen, dose series, 48 h
A549 NSCLC = tested on: A549 NSCLC
M14 melanoma = tested on: M14 melanoma
SK-OV-3 ovarian = tested on: SK-OV-3 ovarian
CAKI-1 renal = tested on: CAKI-1 renal
K-562 leukemia = tested on: K-562 leukemia
UACC-257 melanoma = tested on: UACC-257 melanoma
SK-MEL-2 melanoma = tested on: SK-MEL-2 melanoma
NCI-H226 lung = tested on: NCI-H226 lung
A498 renal = tested on: A498 renal
SN12C renal = tested on: SN12C renal
EKVX NSCLC = tested on: EKVX NSCLC
TK-10 renal = tested on: TK-10 renal
LOX IMVI melanoma = tested on: LOX IMVI melanoma
UO-31 renal = tested on: UO-31 renal
UACC-62 melanoma = tested on: UACC-62 melanoma
SNB-75 CNS = tested on: SNB-75 CNS
MDA-MB-231 breast = tested on: MDA-MB-231 breast
OVCAR-4 ovarian = tested on: OVCAR-4 ovarian
NCI/ADR-RES ovarian = tested on: NCI/ADR-RES ovarian
SR leukemia = tested on: SR leukemia
KM12 colon = tested on: KM12 colon
COLO 205 colon = tested on: COLO 205 colon
MDA-MB-435 = tested on: MDA-MB-435
MCF7 breast = tested on: MCF7 breast
HL-60(TB) leukemia = tested on: HL-60(TB) leukemia
SF-295 CNS = tested on: SF-295 CNS
HT29 colon = tested on: HT29 colon
SK-MEL-28 melanoma = tested on: SK-MEL-28 melanoma
BT-549 breast = tested on: BT-549 breast
786-0 renal = tested on: 786-0 renal
SW-620 colon = tested on: SW-620 colon
U251 CNS = tested on: U251 CNS
NCI-H460 lung = tested on: NCI-H460 lung
RPMI-8226 leukemia = tested on: RPMI-8226 leukemia
MOLT-4 leukemia = tested on: MOLT-4 leukemia
NCI-H522 lung = tested on: NCI-H522 lung
HCT-15 colon = tested on: HCT-15 colon
SF-539 CNS = tested on: SF-539 CNS
OVCAR-8 ovarian = tested on: OVCAR-8 ovarian
PC-3 prostate = tested on: PC-3 prostate
SF-268 CNS = tested on: SF-268 CNS
SK-MEL-5 melanoma = tested on: SK-MEL-5 melanoma
OVCAR-5 ovarian = tested on: OVCAR-5 ovarian
SNB-19 CNS = tested on: SNB-19 CNS
NCI-H23 lung = tested on: NCI-H23 lung
HCT-116 colon = tested on: HCT-116 colon
MALME-3M melanoma = tested on: MALME-3M melanoma
HCC-2998 colon = tested on: HCC-2998 colon
T-47D breast = tested on: T-47D breast
HOP-92 NSCLC = tested on: HOP-92 NSCLC
ACHN renal = tested on: ACHN renal
RXF 393 renal = tested on: RXF 393 renal
DU-145 prostate = tested on: DU-145 prostate
HS 578T breast = tested on: HS 578T breast
HOP-62 NSCLC = tested on: HOP-62 NSCLC
OVCAR-3 ovarian = tested on: OVCAR-3 ovarian

## CC(=O)O[C@H]1CCC2(C)C(=CCC3C2CCC2(C)/C(=N/OC(=O)c4ccc(N(CCCl)CCCl)cc4)CCC32)C1 (some centres not stated)
A549 NSCLC
  GI50: 2.45 µM
  TGI: 8.37 µM
M14 melanoma
  GI50: 20.3 µM
  TGI: > 100 µM
SK-OV-3 ovarian
  GI50: > 100 µM
  TGI: > 100 µM
CAKI-1 renal
  GI50: 3.88 µM
  TGI: > 100 µM
K-562 leukemia
  GI50: 3.9 µM
  TGI: > 100 µM
UACC-257 melanoma
  GI50: > 100 µM
  TGI: > 100 µM
SK-MEL-2 melanoma
  GI50: 32.4 µM
  TGI: > 100 µM
NCI-H226 lung
  GI50: > 45.3 µM
  TGI: > 100 µM
A498 renal
  GI50: 3.52 µM
  TGI: > 62.8 µM
SN12C renal
  GI50: 5.48 µM
  TGI: > 100 µM
EKVX NSCLC
  GI50: 8.78 µM
  TGI: > 100 µM
TK-10 renal
  GI50: 8.71 µM
  TGI: > 73.6 µM
LOX IMVI melanoma
  GI50: 2.6 µM
  TGI: > 100 µM
UO-31 renal
  GI50: 1.99 µM
  TGI: > 20.8 µM
UACC-62 melanoma
  GI50: 7.86 µM
  TGI: > 100 µM
SNB-75 CNS
  GI50: 4.47 µM
  TGI: 42.7 µM
MDA-MB-231 breast
  GI50: 4.46 µM
  TGI: > 100 µM
OVCAR-4 ovarian
  GI50: 7.78 µM
  TGI: > 100 µM
NCI/ADR-RES ovarian
  GI50: 5.73 µM
  TGI: > 100 µM
SR leukemia
  GI50: 1.4 µM
  TGI: 5.98 µM
KM12 colon
  GI50: 7.13 µM
  TGI: > 100 µM
COLO 205 colon
  GI50: > 100 µM
  TGI: > 100 µM
MDA-MB-435
  GI50: 10.8 µM
  TGI: > 100 µM
MCF7 breast
  GI50: 12.7 µM
  TGI: > 100 µM
HL-60(TB) leukemia
  GI50: 7.01 µM
  TGI: > 100 µM
SF-295 CNS
  GI50: 3.84 µM
  TGI: > 58 µM
HT29 colon
  GI50: 4.92 µM
  TGI: > 100 µM
SK-MEL-28 melanoma
  GI50: > 100 µM
  TGI: > 100 µM
BT-549 breast
  GI50: 8.67 µM
  TGI: > 100 µM
786-0 renal
  GI50: 4.21 µM
  TGI: > 100 µM
SW-620 colon
  GI50: > 100 µM
  TGI: > 100 µM
U251 CNS
  GI50: 1.88 µM
  TGI: > 28.8 µM
NCI-H460 lung
  GI50: 4.65 µM
  TGI: > 100 µM
RPMI-8226 leukemia
  GI50: 5.68 µM
  TGI: > 100 µM
MOLT-4 leukemia
  GI50: 4.91 µM
  TGI: > 100 µM
NCI-H522 lung
  GI50: 4.88 µM
  TGI: > 82.8 µM
HCT-15 colon
  GI50: 8.87 µM
  TGI: > 100 µM
SF-539 CNS
  GI50: 6.89 µM
  TGI: > 100 µM
OVCAR-8 ovarian
  GI50: 4.02 µM
  TGI: > 100 µM
PC-3 prostate
  GI50: 7.99 µM
  TGI: > 100 µM
SF-268 CNS
  GI50: 2.55 µM
  TGI: 7.71 µM
SK-MEL-5 melanoma
  GI50: 20.4 µM
  TGI: > 100 µM
OVCAR-5 ovarian
  GI50: > 72.8 µM
  TGI: > 100 µM
SNB-19 CNS
  GI50: 3.16 µM
  TGI: 98.2 µM
NCI-H23 lung
  GI50: 6 µM
  TGI: > 100 µM
HCT-116 colon
  GI50: 2.34 µM
  TGI: > 100 µM
MALME-3M melanoma
  GI50: > 65.4 µM
  TGI: > 100 µM
HCC-2998 colon
  GI50: > 55.5 µM
  TGI: > 100 µM
T-47D breast
  GI50: 4.02 µM
  TGI: > 100 µM
HOP-92 NSCLC
  GI50: 13.8 µM
  TGI: > 100 µM
ACHN renal
  GI50: 5.19 µM
  TGI: > 100 µM
RXF 393 renal
  GI50: 3.05 µM
  TGI: 45.9 µM
DU-145 prostate
  GI50: > 89.1 µM
  TGI: > 100 µM
HS 578T breast
  GI50: 2.41 µM
  TGI: 13.5 µM
HOP-62 NSCLC
  GI50: 4.42 µM
  TGI: 24.9 µM
OVCAR-3 ovarian
  GI50: 9.84 µM
  TGI: > 100 µM

— PubChem BioAssay (NCI)
